For orientation: IC50 means the midpoint of a concentration-inhibition curve. Broadly, the Ki is a dissociation constant, usually derived from enzyme kinetics or from competition with a known ligand. Higher therefore signals a looser hold on the target.

In patent US8044053B2, “Sulfonamide substituted pyrazoline compounds, their preparation and use as CB1 modulators” (Laboratories del Dr. Esteve, S.A., priority 2006, dated 2011) one finds IC50 and Ki data, which are given here for 22 compounds.

This assay deals with CB1-receptor (UniProt P20272). In words: In-vitro determination of affinity (binding) to CB1-receptors, radioligand [3H]-CP55940. The following applies: Pharmacological Methods Part I. Also noted: IC50; Ki; species or system human or rat. The method, then: I. In-Vitro Determination of Affinity to CB1/CB2-Receptors
The in-vitro determination of the affinity of the inventive substituted pyrazoline compounds to CB1/CB2-Rezeptors is carried out as described in the publication of Ruth A. Ross, Heather C. Brockie et al., “Agonist-inverse agonist characterisation at CB1 and CB2 cannabinoid receptors of L-759633, L759656 and AM630”, British Journal of Pharmacology, 126, 665-672, (1999), whereby the transfected human CB1 and CB2 receptors of Receptor Biology, Inc. are used. The radioligand used for both receptors is [^3H]-CP55940. The respective parts of the description is hereby incorporated by reference and forms part of the present disclosure.
Rat Cerebellum CB1 Binding
Binding affinity to CB1 receptor was evaluated according to a modification of the method described by Govaerts et al., Eur J Pharmac Sci 23, 233-243 (2004). The respective parts of the description is hereby incorporated by reference and forms part of the present disclosure.
Briefly, cerebellum from male wistar rats (250-300 g) were carefully dissected on ice and homogenates were prepared with Potter-Helveheim in a cold 50 mM Tris-HCl solution containing 5 mM MgCl2, 1 mM EDTA and 0.25 M sucrose, pH 7.4. The suspension was centrifuged at 1,000×g for 5 minutes. The supernatants were collected and centrifuged 50,000×g for 15 minutes. The resulting pellets were then resuspended in Tris-HCl buffer without sucrose, homogenised and incubated for 15 min at 37° C. in an orbital shaker bath and centrifuged again at 50,000×g for 15 min. Pellets were weighted, resuspended in Tris-HCl buffer without sucrose, homogenised with Ultraturrax at 13,500 rpm for 3×5 seconds and alicuoted in 0.9 ml volumes in Eppendorf tubes. Alicuotes were centrifuged at 20,800×g for 5 minutes, supernatants discarded and pellets were frozen at −80° C. until use. Total protein concentration was determined using the Bio-Rad Lowry method based kit. Competitive binding experiments were performed in presence of 1 nM [^3H]-CP 55,940 in siliconised glass tubes containing 100 μg protein/tube resuspended in 1 ml final volume of 50 mM Tris-HCl, 5 mM MgCl2, 1 mM EDTA, 0.5% (w/v) bovine serum albumin, pH 7.4. Compounds were present at various concentrations and the non specific binding was determined in the presence of 10 μM HU-210. After 1 hour incubation at 30° C., the suspension was rapidly filtered through 0.5% PEI pre-treated GF/B fiber filters on a 96-well harvester and washed 3 times with 3 ml ice-cold binding buffer without bovine serum albumin. Radioactivity on filters was measured with Wallac Winspectral 1414 counter by liquid scintillation in 6 ml Ecoscint H (National Diagnostics, U.K.). Assays were made in triplicates.
Binding data were analysed by non-linear regression with the software GraphPad Prism Version 3.03.
The binding of the pyrazoline compounds of general formulae I, Ia and Ib to CB1-receptors was determined according to the method described in the section Pharmacological Methods, Part I.
Turning to `COc1ccc(C2CC(CNS(=O)(=O)c3cccc(Cl)c3)=NN2c2ccc(Cl)cc2Cl)cc1` (centres unmarked) [Example 225, 3-Chloro-N-[1-(2,4-dichloro-phenyl)-5-(4-methoxy-phenyl)-4,5-dihydro-1H-pyrazol-3-ylmethyl]-benzenesulfonamide], the IC50 was 90.1 nM and the Ki is 39.7 nM.

As for `COc1ccc(C2CC(CNS(=O)(=O)c3cc(Cl)ccc3F)=NN2c2ccc(Cl)cc2Cl)cc1` (centres unmarked) [Example 94, 5-Chloro-N-[1-(2,4-dichloro-phenyl)-5-(4-methoxy-phenyl)-4,5-dihydro-1-pyrazol-3-ylmethyl]-2-fluoro-benzenesulfonamide], the IC50 stood at 74 nM and the Ki is 33 nM.

In the case of `Cc1ccc(F)cc1S(=O)(=O)NCC1=NN(c2ccc(Cl)cc2Cl)C(c2ccc(Br)cc2)C1` (centres unmarked) [Example 277, N-[5-(4-Bromo-phenyl)-1-(2,4-dichloro-phenyl)-4,5-dihydro-1H-pyrazol-3-ylmethyl]-5-fluoro-2-methyl-benzenesulfonamide], the IC50 came to 43 nM and the affinity, expressed as Ki, was 18.2 nM.

`CCOc1ccc(C2CC(CNS(=O)(=O)c3cc(C)c(Cl)cc3C)=NN2c2ccc(Cl)cc2Cl)cc1` (centres unmarked) [Example 247, 4-Chloro-N-[1-(2,4-dichloro-phenyl)-5-(4-ethoxy-phenyl)-4,5-dihydro-1H-pyrazol-3-ylmethyl]-2,5-dimethyl-benzenesulfonamide] had an IC50 of 65.5 nM and a Ki of 27.7 nM.

Compound `COc1ccc(C2CC(CNS(=O)(=O)c3ccccc3Cl)=NN2c2ccc(Cl)cc2Cl)cc1` (centres unmarked) [Example 217, 2-Chloro-N-[1-(2,4-dichloro-phenyl)-5-(4-methoxy-phenyl)-4,5-dihydro-1H-pyrazol-3-ylmethyl]-benzenesulfonamide] returned an IC50 of 69 nM and a Ki of 30.8 nM.

As for `CCOc1ccc(C2CC(CNS(=O)(=O)c3cc(F)ccc3C)=NN2c2ccc(Cl)cc2Cl)cc1` (centres unmarked) [Example 102, N-[1-(2,4-Dichloro-phenyl)-5-(4-ethoxy-phenyl)-4,5-dihydro-1H-pyrazol-3-ylmethyl]-5-fluoro-2-methyl-benzenesulfonamide], the IC50 was determined as 7.2 nM and affinity was put at a Ki of 3 nM.

`O=S(=O)(NCC1=NN(c2ccc(Cl)cc2Cl)C(c2ccc(Cl)cc2)C1)c1cc(C(F)(F)F)ccc1Cl` (centres unmarked) [Example 81, 2-Chloro-N-[5-(4-chloro-phenyl)-1-(2,4-dichloro-phenyl)-4,5-dihydro-1H-pyrazol-3-ylmethyl]-5-trifluoromethyl-benzenesulfonamide] displayed an IC50 of 15.2 nM and an inhibition constant Ki of 6.9 nM.

`Cc1ccc(C)c(S(=O)(=O)NCC2=NN(c3ccc(Cl)cc3Cl)[C@@H](c3ccc(Cl)cc3)[C@H]2C)c1` (racemic) [Example 83, cis-(4RS,5RS)-N-[5-(4-Chloro-phenyl)-1-(2,4-dichloro-phenyl)-4-methyl-4,5-dihydro-1H-pyrazol-3-ylmethyl]-2,5-dimethyl-benzenesulfonamide] showed an IC50 of 50.5 nM and an inhibition constant Ki of 21.4 nM.

As to `O=S(=O)(NCC1=NN(c2ccc(Cl)cc2Cl)C(c2ccc(Cl)cc2)C1)c1ccccc1Br` (centres unmarked) [Example 136, 2-Bromo-N-[5-(4-chloro-phenyl)-1-(2,4-dichloro-phenyl)-4,5-dihydro-1H-pyrazol-3-ylmethyl]-benzenesulfonamide], the IC50 was determined as 40 nM and the Ki worked out at 16.9 nM.

For `CCOc1ccc(C2CC(CNS(=O)(=O)c3cccc(F)c3)=NN2c2ccc(Cl)cc2Cl)cc1` (centres unmarked) [Example 261, N-[1-(2,4-Dichloro-phenyl)-5-(4-ethoxy-phenyl)-4,5-dihydro-1H-pyrazol-3-ylmethyl]-3-fluoro-benzenesulfonamide], the IC50 is 9.8 nM and the Ki is 9.8 nM.

Turning to `O=S(=O)(NCC1=NN(c2ccc(Cl)cc2Cl)[C@@H](c2ccc(Cl)cc2)C1)c1ccccc1` [Example 194, (R)-N-[5-(4-Chloro-phenyl)-1-(2,4-dichloro-phenyl)-4,5-dihydro-1H-pyrazol-3-ylmethyl]-benzenesulfonamide], the IC50 came out at 88.9 nM and the Ki was 38.3 nM.

With `CCOc1ccc(C2CC(CNS(=O)(=O)c3cccc(Cl)c3F)=NN2c2ccc(Cl)cc2Cl)cc1` (centres unmarked) [Example 250, 3-Chloro-N-[1-(2,4-dichloro-phenyl)-5-(4-ethoxy-phenyl)-4,5-dihydro-1H-pyrazol-3-ylmethyl]-2-fluoro-benzenesulfonamide], the concentration for half-maximal inhibition (IC50) was 39.7 nM and the Ki is 16.6 nM.

Take `CCOc1ccc(C2CC(CNS(=O)(=O)c3ccccc3Br)=NN2c2ccc(Cl)cc2Cl)cc1` (centres unmarked) [Example 249, 2-Bromo-N-[1-(2,4-dichloro-phenyl)-5-(4-ethoxy-phenyl)-4,5-dihydro-1H-pyrazol-3-ylmethyl]-benzenesulfonamide]: the IC50 was found to be 5.6 nM and the affinity, expressed as Ki, was 2.4 nM.

Regarding `O=[N+]([O-])c1cccc(S(=O)(=O)NCC2=NN(c3ccc(Cl)cc3Cl)C(c3ccc(Cl)cc3)C2)c1` (centres unmarked) [Example 144, N-[5-(4-Chloro-phenyl)-1-(2,4-dichloro-phenyl)-4,5-dihydro-1H-pyrazol-3-ylmethyl]-3-nitro-benzenesulfonamide], the IC50 is 55 nM and the Ki amounted to 23.2 nM.

Compound `O=S(=O)(NCC1=NN(c2ccc(Cl)cc2Cl)C(c2ccc(Cl)cc2)C1)c1cc(Cl)ccc1Cl` (centres unmarked) [Example 139, 2,5-Dichloro-N-[5-(4-chloro-phenyl)-1-(2,4-dichloro-phenyl)-4,5-dihydro-1H-pyrazol-3-ylmethyl]-benzenesulfonamide] yielded an IC50 of 16.5 nM and a Ki of 7 nM.

Consider `Cc1ccc([N+](=O)[O-])cc1S(=O)(=O)NCC1=NN(c2ccc(Cl)cc2Cl)C(c2ccc(Cl)cc2)C1` (centres unmarked) [Example 142, N-[5-(4-Chloro-phenyl)-1-(2,4-dichloro-phenyl)-4,5-dihydro-1H-pyrazol-3-ylmethyl]-2-methyl-5-nitro-benzenesulfonamide], for which the IC50 was 5.5 nM and affinity was put at a Ki of 2.3 nM.

As to `CCOc1ccc(C2CC(CNS(=O)(=O)c3cc(C(F)(F)F)ccc3Cl)=NN2c2ccc(Cl)cc2Cl)cc1` (centres unmarked) [Example 101, 2-Chloro-N-[1-(2,4-dichloro-phenyl)-5-(4-ethoxy-phenyl)-4,5-dihydro-1H-pyrazol-3-ylmethyl]-5-trifluoromethyl-benzenesulfonamide], the concentration for half-maximal inhibition (IC50) is 12.8 nM and the Ki is 5.6 nM.

`CCOc1ccc(C2CC(CNS(=O)(=O)c3cc(C)ccc3C)=NN2c2ccc(Cl)cc2Cl)cc1` (centres unmarked) [Example 103, N-[1-(2,4-Dichloro-phenyl)-5-(4-ethoxy-phenyl)-4,5-dihydro-1H-pyrazol-3-ylmethyl]-2,5-dimethyl-benzenesulfonamide] came in with an IC50 of 12.1 nM and an inhibitory constant (Ki) of 5.3 nM.

Regarding `Cc1ccc(C)c(S(=O)(=O)NCC2=NN(c3ccc(Cl)cc3Cl)C(c3ccc(Br)cc3)C2)c1` (centres unmarked) [Example 280, N-[5-(4-Bromo-phenyl)-1-(2,4-dichloro-phenyl)-4,5-dihydro-1H-pyrazol-3-ylmethyl]-2,5-dimethyl-benzenesulfonamide], the IC50 worked out at 42 nM and the Ki was 17.5 nM.

`COc1ccc(C2CC(CNS(=O)(=O)c3cc(C)ccc3C)=NN2c2ccc(Cl)cc2Cl)cc1` (centres unmarked) [Example 97, N-[1-(2,4-Dichloro-phenyl)-5-(4-methoxy-phenyl)-4,5-dihydro-1H-pyrazol-3-ylmethyl]-2,5-dimethyl-benzenesulfonamide] showed an IC50 of 43.9 nM and a Ki of 18.4 nM.

For the compound `CCOc1ccc(C2CC(CNS(=O)(=O)c3c(C)cc(C)cc3C)=NN2c2ccc(Cl)cc2Cl)cc1` (centres unmarked) [Example 272, N-[1-(2,4-Dichloro-phenyl)-5-(4-ethoxy-phenyl)-4,5-dihydro-1H-pyrazol-3-ylmethyl]-2,4,6-trimethyl-benzenesulfonamide], the IC50 was determined as 13.4 nM and affinity was put at a Ki of 5.7 nM.

With `Cc1cc(S(=O)(=O)NCC2=NN(c3ccc(Cl)cc3Cl)[C@@H](c3ccc(Cl)cc3)C2)c(C)cc1Cl` [Example 67, (R)-4-Chloro-N-[5-(4-chloro-phenyl)-1-(2,4-dichloro-phenyl)-4,5-dihydro-1H-pyrazol-3-ylmethyl]-2,5-dimethyl-benzenesulfonamide], the concentration for half-maximal inhibition (IC50) is 91 nM and the Ki was found to be 40.6 nM.
